Measured values taken from patent US20160250255A1, “METHODS FOR INDUCTION OF ANTIGEN-SPECIFIC REGULATORY T CELLS” (IMCYSE SA, priority 2013, published 2016).

Key:
[1] = test system: WEHI 231 cells; experiment: Induction of apoptosis of B cell line WEHI 231 by peptide-expanded NKT cells; format: cell-based, BALB/c mice; details: WEHI 231 B cell line (H-2d) as APC; NKT cells elicited with the peptide; FIG. 3, means of 2 experiments and SEM
From the text: FIG. 3 depicts similar experiments (means of 2 experiments and SEM) but using a B cell line (WEHI 231 cells). WEHI cells are derived from BALB/c mice (H-2d) and not from C57BL/6 mice (H-2b). The histo-incompatibility between the 2 strains prevents presentation of peptides designed for C57BL/6 mice by BALB/c MHC class II, but not presentation by the non-polymorphic CD1d molecule. […] ID NO: 1 or SEQ. ID NO: 2.

[2] = test system: dendritic cells; experiment: Induction of apoptosis of peptide-loaded dendritic cells by peptide-expanded NKT cells (annexin V binding); format: cell-based, C57BL/6 mice; details: NKT cells expanded with the peptide; FIG. 1, means of 2 experiments and SEM; negative control dendritic cells with no peptides
Description: Antigen-presenting cells (APC) are prepared from C57BL/6 mice and loaded with a peptide encompassing a CD1d-restricted NKT cell peptide epitope of hexon-6 capsid protein of adenovirus 5 vector used for gene therapy or gene vaccination.
Dendritic cells loaded with one of these peptides are then incubated with naïve CD62L+ CD4+ cells obtained from the spleen. After several cycles of stimulation, the capacity of NKT cells to induce apoptosis of the corresponding APC is measured and a comparison is established between peptides for their capacity to induce apoptosis.
The results shown in FIG. 1 (means of 2 experiments and SEM) indicate that NKT cells expanded with peptide of either SEQ. ID NO: 1 or SEQ. […] Negative controls include dendritic cells incubated with no peptides.

[3] = test system: APCs; experiment: Capacity of NKT cells to induce apoptosis of APCs, peptide with modified CD1d binding motif; format: cell-based; details: W substituted at position P7 of the CD1d binding motif
Description: Modification of the core sequence of the CD1d binding motif is carried out by introducing a hydrophobic amino acid at position P7 of the motif and generates the peptide IAFRDN FIGLMYW [SEQ. ID NO: 3], in which W at position 7 increases the binding to the hydrophobic pocket of CD1d.

Sequence	induction of apoptosis [1]	apoptosis of dendritic cells, as measured by annexin V binding [2]	capacity of NKT cells to induce apoptosis of APCs [3]
CHGCGGFIGLMYY (redutase motif + hexon 6 capsid protein) [SEQ. ID NO: 2, residues 333 to 339 of the hexon-6 protein containing a thioreductase motif (CxxC) within flanking residues (GG)]	significant induction of apoptosis	elicit apoptosis of dendritic cells	–
IAFRDNFIGLMYW (modified version of hexon 6 capsid protein) [SEQ. ID NO: 3]	–	–	further boosts the capacity of NKT cells to induce apoptosis of APCs
IAFRDNFIGLMYY (fragment of hexon 6 capsis protein) [SEQ. ID NO: 1, amino acid residues 327 to 339 of the hexon-6 protein of adenovirus 5]	significant induction of apoptosis	elicit apoptosis of dendritic cells	–
